Measurements published in patent US20220125930A1, “SYSTEM AND METHOD FOR FABRICATION OF LARGE, POROUS DRUG-SILK MATERIALS USING CRYOGRANULATION” (Trustees of Tufts College, priority 2019, published 2022).

System: bioluminescent S. aureus Xen29
Test: Kirby-Bauer disc diffusion test of antibiotic-loaded RSFPs
Assay type: cell-based
Conditions: zones of inhibition on XEN29 cultures after 12 hours, vs blank RSFPs
Experimental: Antimicrobial activity of tobramycin sulfate (TS), gentamicin sulfate (GS) and kanamycin sulfate (KS) encapsulated in RSFPs sized 100-500 mcm was assessed by Kirby-Bauer disc diffusion tests, performed according to methods outlined in the NCCLS Approved Standard M2-A7. A stock suspension of bioluminescent S. aureus Xen29 was prepared in sterile physiological solution and turbidity (expressed as optical density; OD) was adjusted against the McFahrland standard to match the 0.5 level. A sterilized cotton swab was immersed in the bacterial suspension, and a lawn of bacteria was applied on the Luria Bertani (LB) plates. A 10-mm biopsy punch was used to cut two circular fragments from each of the freshly infected plates, and both fragments were coated with antibiotic-loaded RSFPs by quick blotting against the pool of particles. The freshly mounted samples were inserted […] II system (Caliper life Science, America). The exposure time (1 s), excitation filter (430 nm), and emission filter with emission wavelength from 575 to 650 nm (DsRed) were set prior to detection.

Substance | post-processing antimicrobial activity (antibiotic function) of cryoencapsulated antibiotics
gentamicin sulfate [GS] | preserved
tobramycin sulfate [TS] | preserved
